In data set [1] the test system is TNF production from human peripheral blood mononuclear cells (PBMC). The data set is described as follows: TNF production from PBMC stimulated with LPS, LTA, PGN or Pam3CSK4, 24 h, Cytometric Bead Array. The format is cell-based. The following applies: Table 18. The procedure: (§1) Peripheral blood was drawn from healthy volunteers (with approval from the relevant ethical committee in Denmark). Heparinized blood was diluted 1/1 v/v with RPMI and were subjected to Ficoll density centrifugation within 2 h of drawing. Plasma was collected from the top from individual donors and was kept on ice until it was used at 2% in the culture medium (autologous culture medium). Isolated PBMC were resuspended in autologous culture medium and seeded in 96-well culture plates with 255.000 cells per well in a total of 200 μl. […] The concentrations used for stimulation were optimized on 3 different donors in initial experiments, for LPS two different concentrations were used to be sure to be on a cytokine level that is possible to modulate. In some experiments PBMC were treated with Dexamethason and Indomethacin alone and together with LPS or LTA as a control on downregulation of inflammatory cytokines. The supernatants were collected after incubation at 37° C. for 24 hours, and stored at −80° C. until cytokine measurement. Viability was measured by Alamar Blue (Biosource, DALL 1100) in all experiments and in some cases also by MTS (Promega) according to manufacturer's instruction and was in some experiments also judged by counting of the cells by a Nucleocounter.
(§2) Cytokine production in supernatants was measured by flow cytometry with a human inflammation cytometric bead array (CBA) according to manufacturer's instructions (BD) on a FACSarray flow cytometer. The following cytokines were measured: IL-8, IL-1β, IL-10, TNF, IL-12 p70, IL-6. In some experiments, cytokines were measured by ELISA kits from R&D systems (IL-10, TNF-α, IL-1β) according to the manufacturer' instruction.
(§3) All experiments were performed at least twice, with representative results shown. The data presented are expressed as mean plus/minus standard deviation (SD). […] Differences were considered significant for p<0.05.
Example 3 was carried out essentially as described in Example 2. […]

The subject of data set [2] is IL-23, human PBMC. The data set is described as follows: IL-23 in supernatants of human PBMC, ELISA. The data set is classed as cell-based. The following applies: Infliximab 1 μg/ml. Here is the method: as §1
Moreover, the effect of rhBD2 on human monocyte-derived dendritic cells was also investigated.
Cell culture supernatants were collected and stored at −80° C. Amounts of IL-23 was measured by standard sandwich ELISA using commercially available antibodies and standards according to the manufacturer's protocols (eBioscience).
All experiments were performed at least twice, with representative results shown. The data presented are expressed as mean plus/minus standard deviation […]. […] Differences were considered significant for p<0.05.

For data set [3], the system named is TNF production from mouse peripheral blood mononuclear cells (PBMC). The data set is described as follows: TNF production from mouse PBMC, mouse inflammation CBA. The data set is classed as cell-based. The conditions noted are these: Infliximab 1 μg/ml. Here is the method:
Mouse peripheral blood mononuclear cells were isolated from blood of ten NMRI mice. In short, heparinized blood was diluted 1/1 v/v with RPMI and subjected to Ficoll density centrifugation within 2 h of drawing. Plasma was collected from the top and discarded. Isolated PBMC were resuspended in culture medium (RPMI 1640 (Gibco, 42401) w/1% penicillin and streptomycin and 1% L-Glutamine) and seeded in 96-well culture plates with 115.500 cells per well in a total of 200 μl. […] The supernatants were collected after incubation at 37° C. for 24 hours, and stored at −80° C. until cytokine measurement.
Cytokine production in supernatants was measured by flow cytometry with a mouse inflammation cytometric bead array (CBA) according to manufacturer's instructions (BD) on a FACSarray flow cytometer.

The test system of data set [4] is IL-10 production from human peripheral blood mononuclear cells (PBMC). The data set is described as follows: IL-10 production from PBMC stimulated with LPS, LTA or PGN, 24 h, Cytometric Bead Array. The data set is classed as cell-based. The conditions noted are these: Table 19. Here is the method:
as §1, §2, §3

Data set [5] relates to IL-1β production from human peripheral blood mononuclear cells (PBMC). The data set is described as follows: IL-1β production from PBMC stimulated with LPS or LTA, 24 h, Cytometric Bead Array. The data set is classed as cell-based. The conditions noted are these: Table 20. Here is the method: as §1, §2, §3
In data set [6] the test system is PBMC. The data set is described as follows: PBMC viability, Alamar Blue. The format is cell-based, human. The procedure:
as §1

Where [7] appears, read: positive control, concentration not given, LPS 0.6 ng/ml.
The mark [8] stands for this setting: positive control, concentration not given, LPS 20 ng/ml.
Where [9] appears, read: positive control, concentration not given, Medium, non-treated 0.
The mark [10] stands for this setting: test compound 1 μg/ml, LPS 0.6 ng/ml.
Setting [11] is: test compound 1 μg/ml, LPS 20 ng/ml.
The mark [12] stands for this setting: test compound 1 μg/ml, Medium, non-treated 1.
[13] abbreviates: test compound 10 μg/ml, LPS 0.6 ng/ml.
Setting [14] is: test compound 10 μg/ml, LPS 20 ng/ml.
[15] abbreviates: test compound 1 μg/ml, LPS 0.6 ng/ml, non-treated 66.
[16] abbreviates: test compound 1 μg/ml, Medium, non-treated 0.
Setting [17] is: test compound 10 μg/ml, Medium, non-treated 0.
The mark [18] stands for this setting: test compound 1 μg/ml, LPS 0.6 ng/ml, non-treated 741.
Setting [19] is: test compound 1 μg/ml, LPS 20 ng/ml, non-treated 2544.

As for “Infliximab: anti-inflammatory compound included as positive control on downregulation of TNF [reference compound]”, the “TNF % of control” value in data set [1] (setting [7]) and in data set [1] (setting [8]) was 0% each time. For the same substance, the TNF in data set [1] (positive control, concentration not given, LPS 0.6 ng/ml, non-treated 728) is 0 pg/mL; in data set [1] (positive control, concentration not given, LPS 20 ng/ml, non-treated 2164) it was 0 pg/mL; in data set [1] (positive control, concentration not given, Medium, non-treated 1) it was 0 pg/mL; in data set [3] (LPS 20 ng/ml, untreated 2063), 2119 pg/mL; in data set [3] (Medium, untreated 578), 530 pg/mL. Besides, the IL-23 in data set [2] (Control (medium), non-treated 257) came out at 227 pg/mL; in data set [2] (LPS 0.6 ng/ml, non-treated 553), 356 pg/mL; in data set [2] (LPS 20 ng/ml, non-treated 510), 373 pg/mL; in data set [2] (LTA 5 μg/ml, non-treated 762) it was 349 pg/mL. In addition, the “IL-10 % of control” value in data set [4] (setting [7]) is 69%; in data set [4] (setting [8]) it was 56%. In addition, the IL-10 in data set [4] (positive control, concentration not given, LPS 0.6 ng/ml, non-treated 66) was 46 pg/mL; in data set [4] (positive control, concentration not given, LPS 20 ng/ml, non-treated 111), 63 pg/mL; in data set [4] (setting [9]), 0 pg/mL. The “IL-1β % of control” value in data set [5] (setting [7]) is reported as 86%; in data set [5] (setting [8]) it was 106%. Besides, the IL-1β in data set [5] (positive control, concentration not given, LPS 0.6 ng/ml, non-treated 741) is 636 pg/mL; in data set [5] (positive control, concentration not given, LPS 20 ng/ml, non-treated 2544), 2704 pg/mL; in data set [5] (setting [9]), 0 pg/mL.

Regarding “hBD4 variant: consists of amino acids 3-39 of hBD4, SEQ ID NO:5 (ELDRICGYGTARCRKKCRSQEYRIGRCPNTYACCLRK; hBD-4 variant consisting of amino acids 3-39 of SEQ ID NO4)”, the “TNF % of control” value is 64% in data set [1] (setting [10]), 36% in data set [1] (setting [11]), 29% in data set [1] (setting [13]) and 6% in data set [1] (setting [14]). The TNF in data set [1] (setting [12]) amounted to 0 pg/mL; in data set [1] (test compound 10 μg/ml, Medium, non-treated 1), 0 pg/mL. Further, the “Toxicity to the cells” value in data set [6] (40 μg/ml) is reported as “toxic to the cells”. For the same substance, the “Secretion of IL-10” value in data set [4] (PBMC with LPS) was “significantly and dose-dependently enhanced”. The IL-10 is 90 pg/mL in data set [4] (setting [15]); 0 pg/mL in data set [4] (setting [16]); 92 pg/mL in data set [4] (test compound 10 μg/ml, LPS 0.6 ng/ml, non-treated 66); 0 pg/mL in data set [4] (setting [17]). Moreover, the “IL-1β % of control” value in data set [5] (setting [10]) is 39%; in data set [5] (setting [11]), 40%; in data set [5] (setting [13]) it was 22%; in data set [5] (setting [14]), 18%. Further, the IL-1β turned out to be 286 pg/mL in data set [5] (setting [18]); 1004 pg/mL in data set [5] (setting [19]); 0 pg/mL in data set [5] (setting [16]); 163 pg/mL in data set [5] (test compound 10 μg/ml, LPS 0.6 ng/ml, non-treated 741); 463 pg/mL in data set [5] (test compound 10 μg/ml, LPS 20 ng/ml, non-treated 2544); 0 pg/mL in data set [5] (setting [17]).

With “hBD3: human beta defensin 3, SEQ ID NO:3, obtained from Peptide Institute Inc.”, the “TNF % of control” value in data set [1] (setting [10]) was 73%; in data set [1] (setting [11]), 21%. Besides, the TNF in data set [1] (test compound 1 μg/ml, LPS 0.6 ng/ml, non-treated 728) worked out at 528 pg/mL; in data set [1] (test compound 1 μg/ml, LPS 20 ng/ml, non-treated 2164), 451 pg/mL; in data set [1] (setting [12]) it was 0 pg/mL. In addition, the “Toxicity to the cells” value in data set [6] (10 μg/ml and 40 μg/ml) is “toxic to the cells”. Besides, the “IL-10 % of control” value in data set [4] (setting [10]) came to 107%; in data set [4] (setting [11]), 137%. The values for the IL-10 in data set [4] (setting [15]) and in data set [4] (setting [16]) were 71 pg/mL and 0 pg/mL, respectively. Besides, the “IL-1β % of control” value was 45% in data set [5] (setting [10]) and 22% in data set [5] (setting [11]). Besides, the figures for the IL-1β in data set [5] (setting [18]), in data set [5] (setting [19]) and in data set [5] (setting [16]) were 331 pg/mL, 568 pg/mL and 0 pg/mL, respectively.

The record behind these values is patent publication US8232248B2, “Treatment of rheumatoid arthritis with mammal beta defensins” (Novozymes Adenium Biotech A/S, priority 2008, dated 2012).
